Where two headings read alike, the source gives them in different places.
Assay: Pharmacokinetics of HC-7366 in male and female beagle dogs following IV and oral administration of HC-7366-K (plasma and urine, LC-MS/MS)
Type: in vivo, Beagle Dog
Parameters: AUC(0-t)/D: unit not given here
Conditions: for AUC(0-inf) / AUC(0-t) / FPO / AUC(0-t)/D / t1/2: mean n = 3; for AUC(0-t): t = 48 h; for FPO: based on AUC(0-inf); for Cmax: suspension of Form III; for bioavailability: read-out: Mean oral bioavailability (FPO); for half-life: read-out: terminal half-life (t1/2) (converted); for Emesis: at 1 hour post dose
Experimental: The objective of this study was to characterize the pharmacokinetics of HC-7366 in male and female beagle dogs following intravenous (IV) and oral (PO) administration of the potassium salt of the compound of formula (I), which may be referred to in this Example as HC-7366-K.
The IV solution formulation of HC-7366-K contained “5% (v/v) DMSO and 95% (v/v) Captisol (20% w/v) in PBS (pH 7.4)”, and was administered […] dose at 0.5 mg free acid/kg.
The PO suspension formulation of HC-7366-K is a suspension of Form III of the potassium salt of the compound of formula (I) (see Example 6) and contained “0.5% (w/v) methylcellulose (400 cp) in water”, and was administered orally at 1 mg free acid/kg, 10 mg free acid/kg, 50 mg free acid/kg, 150 mg free acid/kg, respectively.
After dosing, blood samples were collected at various time points. Plasma and urine was harvested and analysed by LC-MS/MS to characterize the PK profiles of HC-7366.
HC-7366-K was stored at room temperature. The compound used in this study was HC-7366-K. All doses, concentrations and supporting data are expressed in terms of free acid. The molecular weight conversion factor from HC-7366-K to free acid was 1.11.
HC-7366-K was formulated as an IV solution at a target dose level of 0.5 mg/mL in “5% (v/v) DMSO and 95% (v/v) Captisol (20% w/v) in PBS (pH 7.4)”.
HC-7366-K was formulated as a PO suspension of Form III of the potassium salt of the compound of formula (I) (see Example 6) at a target dose concentration of 0.25 mg/mL, 2.5 mg/mL, 12.5 mg/mL and 37.5 mg/mL in “0.5% (w/v) methylcellulose (aq.) (400 cp) in water” respectively.
The dose was administered via intravenous and oral gavage at the target dose volume of 1, and 4 mL/kg, respectively. All animals had free access to water, were fasted overnight prior to dosing and fed approximately 2 hours after dosing. The IV dose and PO dose at 1 mg/kg were administered to the same dogs as a cross-over design. The PO dose was administered 10 days after the IV dose. The PO doses at 10, 50 and 150 mg/kg were administered to individual animals.
Following IV administration, blood samples (ca 0.3 mL) were collected from the venepuncture of peripheral veins except the dosing vein. Blood samples were collected pre dose and at 0.083 h, […], 0.5 h, 1 h, 2 h, 4 h, 8 h, […], 30 h, and 48 h post dose.
Following PO administration, blood samples (ca 0.3 mL) were collected from the venepuncture of peripheral veins. Blood samples were collected pre dose and at 0.25 h, 0.5 h, 1 h, 2 h, 4 h, 8 h, 24 h, 30 h, and 48 h post dose.
Blood samples were collected into tubes containing K2EDTA as anticoagulant. The acceptable time ranges for blood collection are shown below. […]. Samples were stored in a freezer set to maintain a temperature at or below −80° C. prior to analysis. The residual blood cells were discarded.
Urine samples were collected on cold packs into clean bottles and the cold packs were checked during the day and at each sampling interval. At the end of the collection interval, the volume of urine was recorded and then each sample was well mixed and maintained on wet ice throughout processing and then stored frozen at […]75±15° C. until analysis.
The plasma and urine concentration of HC-7366 was determined by protein precipitation with acetonitrile followed by liquid chromatography with mass spectrometric detection (LC MS/MS). Sample preparation was conducted by adding 50 uL plasma or 50 uL urine to 200 uL of acetonitrile containing dexamethasone as an analytical internal standard. There was no formal validation data to support the assay.
Calibration standards were prepared in male, female beagle dog plasma or urine using HC-7366 Free acid. Calibration standards were freshly prepared on the day of analysis.
Parameters were estimated using Phoenix (WinNonlin) pharmacokinetic software version 6.1.0 using a non-compartmental approach consistent with IV and PO routes of administration. […]

[1] = Female Beagle dog, IV 0.5 mg/kg, plasma
[2] = Female Beagle dog, PO 1 mg/kg, plasma
[3] = Female Beagle dog, PO 10 mg/kg, plasma
[4] = Female Beagle dog, PO 50 mg/kg, plasma
[5] = Female Beagle dog, PO 150 mg/kg
[6] = Female Beagle dog, PO 150 mg/kg, plasma
[7] = dog, plasma, female beagle dogs, oral 1 mg/kg
[8] = dog, Male Beagle dogs, IV 0.5 mg/kg, HC-7366 in plasma
[9] = dog, Male Beagle dogs, PO 1 mg/kg, HC-7366 in plasma
[10] = dog, Male Beagle dogs, PO 10 mg/kg, HC-7366 in plasma
[11] = dog, Male Beagle dogs, PO 50 mg/kg, HC-7366 in plasma
[12] = dog, Male Beagle dogs, PO 150 mg/kg, HC-7366 in plasma
[13] = plasma, female beagle dog, oral 10 mg/kg
[14] = plasma, female beagle dog, oral 50 mg/kg
[15] = plasma, female beagle dog, oral 150 mg/kg
[16] = plasma, male beagle dog, oral 1 mg/kg
[17] = plasma, male beagle dog, oral 10 mg/kg
[18] = plasma, male beagle dog, oral 50 mg/kg
[19] = plasma, male beagle dog, oral 150 mg/kg

AUC(0-inf) [1]: 85.7 µg·h/mL
AUC(0-t) [1]: 81.1 µg·h/mL
FPO (Female Beagle dog, PO 1 mg/kg): 99%
AUC(0-t)/D (Female Beagle dog, PO 1 mg/kg): 156383
AUC(0-inf) [2]: 170 µg·h/mL
t1/2 [2]: 13 h
AUC(0-t) [2]: 156 µg·h/mL
FPO (Female Beagle dog, PO 10 mg/kg): 84%
AUC(0-t)/D (Female Beagle dog, PO 10 mg/kg): 126414
AUC(0-inf) [3]: 1440 µg·h/mL
t1/2 [3]: 14 h
Tmax (Female Beagle dog, PO 10 mg/kg, range n = 3): 0.50 to 1.0 h
AUC(0-t) [3]: 1260 µg·h/mL
FPO (Female Beagle dog, PO 50 mg/kg): 63%
AUC(0-t)/D (Female Beagle dog, PO 50 mg/kg): 97510
AUC(0-inf) [4]: 5370 µg·h/mL
t1/2 [4]: 14 h
AUC(0-t) [4]: 4880 µg·h/mL
FPO [5]: 32%
AUC(0-t)/D [5]: 49629
AUC(0-inf) [6]: 8260 µg·h/mL
t1/2 [6]: 14 h
AUC(0-t) [6]: 7440 µg·h/mL
AUC(0-t)/D (Male Beagle dogs, IV 0.5 mg/kg): 155094
FPO (Male Beagle dogs, PO 1 mg/kg): 73%
AUC(0-t)/D (Male Beagle dogs, PO 1 mg/kg): 116097
t1/2 (Male Beagle dogs, PO 10 mg/kg, HC-7366 in plasma): 15 h
FPO (Male Beagle dogs, PO 10 mg/kg): 83%
AUC(0-t)/D (Male Beagle dogs, PO 10 mg/kg): 126074
t1/2 (Male Beagle dogs, PO 50 mg/kg, HC-7366 in plasma): 17 h
FPO (Male Beagle dogs, PO 50 mg/kg): 58%
AUC(0-t)/D (Male Beagle dogs, PO 50 mg/kg): 85797
t1/2 (Male Beagle dogs, PO 150 mg/kg, HC-7366 in plasma): 11 h
FPO (Male Beagle dogs, PO 150 mg/kg): 21%
AUC(0-t)/D (Male Beagle dogs, PO 150 mg/kg): 34480
Tmax (Male Beagle dogs, PO 150 mg/kg, range n = 3): 1.0 to 4.0 h
Tmax (dog, plasma, Male Beagle dogs, PO 1 mg/kg, range n = 3, read-out: tmax): 0.25 to 0.5 h
Tmax (dog, plasma, Male Beagle dogs, PO 10 mg/kg, range n = 3, read-out: tmax): 0.5 h
Tmax (dog, plasma, Male Beagle dogs, PO 50 mg/kg, range n = 3, read-out: tmax): 0.5 to 1 h
clearance (dog, plasma, female Beagle dogs, intravenous 0.5 mg/kg, read-out: Clearance (CL)): 5.84 mL/h/kg
Vd (dog, plasma, female Beagle dogs, intravenous 0.5 mg/kg, read-out: volume of distribution at steady state (Vss)): 0.084 L/kg
Cmax [7]: 10.7 µg/mL
bioavailability [7]: 99%
half-life [7]: 13 h
AUC(0-inf) [8]: 85.6 µg·h/mL
AUC(0-t) [8]: 77.5 µg·h/mL
AUC(0-inf) [9]: 123 µg·h/mL
AUC(0-t) [9]: 116 µg·h/mL
AUC(0-inf) [10]: 1420 µg·h/mL
AUC(0-t) [10]: 1260 µg·h/mL
AUC(0-inf) [11]: 4930 µg·h/mL
AUC(0-t) [11]: 4290 µg·h/mL
AUC(0-inf) [12]: 5470 µg·h/mL
AUC(0-t) [12]: 5170 µg·h/mL
half-life (dog, female Beagle dogs, intravenous 0.5 mg/kg, plasma HC-7366, mean n=3): 12 h
half-life (dog, male beagle dogs, intravenous 0.5 mg/kg, plasma HC-7366, mean n=3): 14 h
gender differences in the PK parameters (male versus female beagle dogs): no notable gender differences
Tmax (plasma, Female Beagle dog, PO 1 mg/kg, range n = 3, read-out: tmax): 1 to 2 h
Tmax (plasma, Female Beagle dog, PO 50 mg/kg, range n = 3, read-out: tmax): 2 to 4 h
Tmax (plasma, Female Beagle dog, PO 150 mg/kg, range n = 3, read-out: tmax): 0.5 to 1 h
Cmax [13]: 87 µg/mL
Tmax (plasma, female beagle dog, oral 10 mg/kg, three animals, read-out: time post dose at which Cmax was observed (Tmax)): 0.5 to 1 h
bioavailability [13]: 84%
half-life [13]: 14 h
Cmax [14]: 246 µg/mL
bioavailability [14]: 63%
half-life [14]: 14 h
Cmax [15]: 350 µg/mL
bioavailability [15]: 32%
half-life [15]: 14 h
Cmax [16]: 10.2 µg/mL
bioavailability [16]: 73%
half-life [16]: 12 h
Cmax [17]: 94.3 µg/mL
bioavailability [17]: 83%
half-life [17]: 15 h
Cmax [18]: 227 µg/mL
bioavailability [18]: 58%
half-life [18]: 17 h
Cmax [19]: 280 µg/mL
Tmax (plasma, male beagle dog, oral 150 mg/kg, three animals, read-out: time post dose at which Cmax was observed (Tmax)): 1 to 4 h
bioavailability [19]: 21%
half-life [19]: 11 h
SMILES: CNC(=O)c1ncn2cc(-c3c(F)ccc(NS(=O)(=O)c4cc(Cl)cnc4OC)c3F)ncc12 [HC-7366-K, 6-(3-((5-chloro-2-methoxypyridine)-3-sulfonamido)-2,6-difluorophenyl)-N-methylimidazo[1,5-a]pyrazine-1-carboxamide]
Emesis (female beagle dog, oral 150 mg/kg): Emesis was observed
Emesis (male beagle dog, oral 150 mg/kg): Emesis was observed
dose proportionality of AUC (AUC/D values) (oral, between 1 and 50 mg/kg, beagle dogs): generally increased in proportional to dose level

Reference: patent US20260224563A1, “CRYSTALLINE FORMS OF 6-(3-((5-CHLORO-2-METHOXYPYRIDINE)-3-SULFONAMIDO)-2,6-DIFLUOROPHENYL)-N-METHYLIMIDAZO[1,5-A]PYRAZINE-1-CARBOXAMIDE AND METHODS FOR USING THE SAME” (HIBERCELL, INC., priority 2023, published 2026)
